# Laboratory results: patent US10568950B1, “Peptides, combination of peptides and scaffolds for use in immunotherapeutic treatment of various cancers” (Immatics Biotechnologies GmbH, priority 2015, dated 2020)
# Test system: HLA-A*24
# Test: MHC binding assay: UV-ligand exchange, beta2m ELISA (peptide exchange yield)
# Set-up: species or system human
# Conditions: binding to HLA-A*24, β2m ELISA
# Description: Candidate peptides for T cell based therapies according to the present invention were further tested for their MHC binding capacity (affinity). The individual peptide-MHC complexes were produced by UV-ligand exchange, where a UV-sensitive peptide is cleaved upon UV-irradiation, and exchanged with the peptide of interest as analyzed. Only peptide candidates that can effectively bind and stabilize the peptide-receptive MHC molecules prevent dissociation of the MHC complexes. To determine the yield of the exchange reaction, an ELISA was performed based on the detection of the light chain (β2m) of stabilized MHC complexes. The assay was performed as generally described in Rodenko et al. (Rodenko et al., 2006).
# 96 well MAXISorp plates (NUNC) were coated over night with 2 ug/ml streptavidin in PBS at room temperature, washed 4× and blocked for 1 h at 37° C. in 2% BSA containing blocking buffer. […] Peptide-MHC monomers of the UV-exchange reaction were diluted 100 fold in blocking buffer. Samples were incubated for 1 h at 37° C., washed four times, incubated with 2 ug/ml HRP conjugated anti-βm for 1 h at 37° C., washed again and detected with TMB solution that is stopped with […]. Absorption was measured at 450 nm. Candidate peptides that show a high exchange yield (preferably higher than 50%, most preferred higher than 75%) are generally preferred for a generation and production of antibodies or fragments thereof, and/or T cell receptors or fragments thereof, as they show sufficient avidity to the MHC molecules and prevent dissociation of the MHC complexes.
row,"Peptide exchange (MHC class I binding score, peptide exchange yield)",Substance
1,++++ (>= 75% = ++++),206 (NYLDVATFL; listed as Homo sapiens) [compound 206]
2,++++ (>= 75% = ++++),208 (TYLEKIDGF; listed as Homo sapiens) [compound 208]
3,++++ (>= 75% = ++++),209 (AFIETPIPLF; listed as Homo sapiens) [compound 209]
4,++++ (>= 75% = ++++),210 (IYAGVGEFSF; listed as Homo sapiens) [compound 210]
5,++++ (>= 75% = ++++),211 (VFKSEGAYF; listed as Homo sapiens) [compound 211]
6,++++ (>= 75% = ++++),217 (IYISNSIYF; listed as Homo sapiens) [compound 217]
7,++++ (>= 75% = ++++),220 (SYSEIKDFL; listed as Homo sapiens) [compound 220]
8,++++ (>= 75% = ++++),221 (KYIGNLDLL; listed as Homo sapiens) [compound 221]
9,++++ (>= 75% = ++++),223 (TFITQSPLL; listed as Homo sapiens) [compound 223]
10,++++ (>= 75% = ++++),231 (AFADVSVKF; listed as Homo sapiens) [compound 231]
11,++++ (>= 75% = ++++),248 (AFPTFSVQL; listed as Homo sapiens) [compound 248]
12,++++ (>= 75% = ++++),249 (RYHPTTCTI; listed as Homo sapiens) [compound 249]
13,++++ (>= 75% = ++++),252 (AFGQETNVPLNNF; listed as Homo sapiens) [compound 252]
14,++++ (>= 75% = ++++),260 (VYMNVMTRL; listed as Homo sapiens) [compound 260]
15,++++ (>= 75% = ++++),261 (GYIKLINFI; listed as Homo sapiens) [compound 261]
16,++++ (>= 75% = ++++),262 (VYSSQFETI; listed as Homo sapiens) [compound 262]
17,++++ (>= 75% = ++++),264 (LYTETRLQF; listed as Homo sapiens) [compound 264]
18,++++ (>= 75% = ++++),265 (SYLNEAFSF; listed as Homo sapiens) [compound 265]
19,++++ (>= 75% = ++++),271 (RFLMKSYSF; listed as Homo sapiens) [compound 271]
20,++++ (>= 75% = ++++),272 (RYVFPLPYL; listed as Homo sapiens) [compound 272]
21,++++ (>= 75% = ++++),274 (KQLDIANYELF; listed as Homo sapiens) [compound 274]
22,++++ (>= 75% = ++++),275 (KYGTLDVTF; listed as Homo sapiens) [compound 275]
23,++++ (>= 75% = ++++),276 (QYLDVLHAL; listed as Homo sapiens) [compound 276]
24,++++ (>= 75% = ++++),280 (TYNPNLQDKL; listed as Homo sapiens) [compound 280]
25,++++ (>= 75% = ++++),286 (SYGTILSHI; listed as Homo sapiens) [compound 286]
